One assay deals with Plasmodium berghei. Description: Activity against Plasmodium berghei in vivo in mice. The conditions noted are these: mice; for inhibition in vivo at 10 mg/kg: percentage parasitemia reduction. Also on record: species or system Plasmodium berghei (strain ANKA) in mice. How it is done:
Test Method for the Determination of the Activity Against Plasmodium berghei in vivo
The preparations are tested on mice infected with malaria pathogens (Plasmodium berghei). Male albino mice (IBM:MORO(SPF), FUELLINSDORF) weighing about 25 g are used as the test animals. They are kept in climatized rooms at 21°-22° C. in groups of 5 animals per cage. They receive ad libitum a diet feed with a low PABA content (NAFAG FUTTER .COPYRGT. No. 9009 PAB-45, PABA content 45 mg/kg) and drinking water. On the first day of the test (DO) the test animals are infected with Plasmodium berghei (strain ANKA). For this there is used heparinized blood of a donor mouse with about 30% parasitemia, which is diluted with physiological saline such that it contains 10^8 parasitized erythrocytes per ml. 0.2 ml of this suspension is injected intravenously (i.v.) into the mice to be treated and into the control mice. In untreated control animals the parasitemia normally reaches 30-40% on the third day after the infection (D+3) and the test animals die between days +5 and +7.
The substances to be tested are dissolved or suspended in distilled water or in a mixture of 7% Tween 80, 3% alcohol (96%) and water. Usually, 0.25 ml of this solution or suspension is administered once subcutaneously and perorally to groups of 5 test animals. Treatment is effected 24 hours after the infection. 10 control animals are treated in the same manner with solvent or suspension medium per test.
All substances are tested in a first test in a single dosage of 10 mg/kg. Only those substances which in this test (10 mg/kg) have shown a parasitaemia reduction of 90% are used for the titration. Suitable dilutions of the test substance can be used to obtain an accurate titration of the activity.
48 hours after the treatment (D+3) blood smears are prepared from all animals using blood from tail veins and are stained with giemsa. The average erythrocyte infection rate (parasitemiea in %) in the control groups as well as in the groups which have been treated with the test compounds is determined by counting under a microscope. The difference in the average values of the infection rates of control group (100%) and treated groups is calculated and expressed as a percentage reduction (GI%). The ED50 or ED90 is determined mathematically by means of the JMP programme (nonlinear fit). The ED50 (ED90) in mg/kg is that dose which after single administration reduces the average erythrocyte infection rate by 50% (90%) in comparison to the control group.

Assay [1] has as its system chloroquine-resistant strains of the human-pathogenic Plasmodium falciparum. Description: Growth inhibition of chloroquine-resistant Plasmodium falciparum strains in vitro. The class given is cell-based. The note with it: for IC50: Plasmodium falciparum; for Resistance index: ratio of average IC50 values for resistant strains and average values for sensitive strains. As to the method:
(§1) Test Method for the Determination of the Activity Against Plasmodium falciparum in vitro
(§2) The preparations are tested on intraerythrocytary stages of Plasmodium falciparum from asynchronous cultures according to the method of Desjardin et al. (Desjardins, R. E. et al: Quantitative assessment of antimalarial activity in vitro by a semiautomated microdilution technique. Antimicrob. Agents Chemother. 16, 710-718, (1979)).
(§3) The culture medium consists of RPMI 1640 with the addition of 25 mM HEPES, 25 mM NaHCO3, 100 μg/ml neomycin and […] (A^+). Human-A^+ erythrocytes are used as the Plasmodium falciparum host cells. The parasites are maintained at 37° C. in an atmosphere of 3% O2, 4% CO2, 9:3% N2 and 95% relative humidity.
(§4) In order to determine the activity, the preparations are dissolved in dimethyl sulphoxide, pre-diluted in the culture medium to a suitable starting concentration and subsequently titrated-out on to microtitre plates in the 2nd stage over 6-7 steps. After the addition of the parasite culture (0.7% parasitemia in 2.5% erythrocyte suspension) the test plates are incubated under the conditions given above for 48 h-72 h. The parasite growth in the different preparation concentrations is determined using [G--^3 H]-hypoxanthin incorporation compared to untreated control cultures on the same test plates. The 50% growth inhibition (IC50) is calculated according to logit regression analysis from the resulting dosage-activity curve.
(§5) The preparations are tested on at least one chloroquine-resistant and one chloroquine-sensitive Plasmodium falciparum strain. Additional sensitive and resistant strains are included for futher characterization.

The subject of assay [2] is chloroquine-sensitive strains of the human-pathogenenic Plasmodium falciparum. The experiment in a line: Growth inhibition of chloroquine-sensitive Plasmodium falciparum strains in vitro. The class given is cell-based. As to the method:
as §1, §2, §3, §4, §5

Where [3] appears, read: po, single peroral dose 10 mg/kg, read-out: GI % at 10 mg/kg po.
[4] abbreviates: sc, single subcutaneous dose 10 mg/kg, read-out: GI % at 10 mg/kg sc.
The mark [5] stands for this setting: read-out: IC50 growth inhibition, strain 7G8, chloroquine-resistant.
[6] abbreviates: read-out: IC50 growth inhibition, strain Indo, chloroquine-resistant.
The mark [7] stands for this setting: read-out: IC50 growth inhibition, strain ItG2F6, chloroquine-resistant.
[8] abbreviates: read-out: IC50 growth inhibition, strain K1, chloroquine-resistant.
Setting [9] is: read-out: IC50 growth inhibition, strain RFCF3, chloroquine-resistant.
The mark [10] stands for this setting: read-out: IC50 growth inhibition, strain W2, chloroquine-resistant.
Where [11] appears, read: read-out: IC50 growth inhibition, strain W2 Mef, chloroquine-resistant.
Setting [12] is: HB3, strain HB3, chloroquine-sensitive, read-out: IC50 growth inhibition.
[13] abbreviates: strain FCH5C2, chloroquine-sensitive, read-out: IC50 growth inhibition.
[14] abbreviates: strain RFMEF3, chloroquine-sensitive, read-out: IC50 growth inhibition.
[15] abbreviates: NF54, strain NF54, chloroquine-sensitive, read-out: IC50 growth inhibition.
Setting [16] is: strain Ro73, chloroquine-sensitive, read-out: IC50 growth inhibition.

Molecules are shown by their SMILES. ≈ marks a conversion by molar mass, not a printed value. Read-outs that look alike come from different tables or passages of the source.

`Clc1ccc2c(N[C@@H]3CCC[C@H](Nc4ccnc5cc(Cl)ccc45)C3)ccnc2c1` [Example 6, cis-N,N'-Bis-(7-chloroquinolin-4-yl)-cyclohexane-1,3-diamine]: the inhibition in vivo at 10 mg/kg was 98% in the assay on Plasmodium berghei (setting [3]) and 99.9% in the assay on Plasmodium berghei (setting [4]). Also, the ED50 (usually the midpoint of the dose-response relation) in the assay on Plasmodium berghei (po, single peroral administration, read-out: ED50 po) was 1.7 mg/kg. Besides, the IC50 (in general, the point on the concentration scale where inhibition reaches its midpoint) in assay [1] (setting [5]) was found to be 3.8 ng/mL (≈ 0.00869 µM); in assay [1] (setting [6]), 3 ng/mL (≈ 0.00686 µM); in assay [1] (setting [7]) it was 4.1 ng/mL (≈ 0.00937 µM); in assay [1] (setting [8]), 4.4 ng/mL (≈ 0.0101 µM); in assay [1] (setting [9]) it was 4.2 ng/mL (≈ 0.0096 µM); in assay [1] (setting [10]) it was 4 ng/mL (≈ 0.00915 µM). Besides, the IC50 was found to be 7.6 ng/mL (≈ 0.0174 µM) in assay [1] (setting [11]); 5.2 ng/mL (≈ 0.0119 µM) in assay [2] (setting [12]); 3.8 ng/mL (≈ 0.00869 µM) in assay [2] (NF54, read-out: IC50 growth inhibition, strain NF54, chloroquine-sensitive); 3 ng/mL (≈ 0.00686 µM) in assay [2] (read-out: IC50 growth inhibition, strain Ro73, chloroquine-sensitive); 6.4 ng/mL (≈ 0.0146 µM) in assay [2] (setting [13]); 4.8 ng/mL (≈ 0.011 µM) in assay [2] (setting [14]). Moreover, in assay [1], the Resistance index came out at 1.0.
On to `C[C@H]1[C@@H](Nc2ccnc3cc(Cl)ccc23)CCC[C@H]1Nc1ccnc2cc(Cl)ccc12` [Example 8, cis,cis-N,N'-Bis-(7-chloroquinolin-4-yl)-2-methyl-cyclohexane-1,3-diamine], for which the inhibition in vivo at 10 mg/kg in the assay on Plasmodium berghei (setting [3]) was found to be 66%; in the assay with Plasmodium berghei (setting [4]), 67%. Moreover, the IC50 was found to be 9.4 ng/mL (≈ 0.0208 µM) in assay [1] (setting [5]); 6.4 ng/mL (≈ 0.0142 µM) in assay [1] (setting [6]); 6.4 ng/mL (≈ 0.0142 µM) in assay [1] (setting [7]); 8.8 ng/mL (≈ 0.0195 µM) in assay [1] (setting [8]); 4.6 ng/mL (≈ 0.0102 µM) in assay [1] (setting [9]); 5.6 ng/mL (≈ 0.0124 µM) in assay [1] (setting [10]). The IC50 in assay [1] (setting [11]) was determined as 9.1 ng/mL (≈ 0.0202 µM); in assay [2] (setting [12]), 6.1 ng/mL (≈ 0.0135 µM); in assay [2] (setting [15]) it was 7.7 ng/mL (≈ 0.0171 µM); in assay [2] (setting [13]) it was 6.1 ng/mL (≈ 0.0135 µM); in assay [2] (setting [14]), 6.3 ng/mL (≈ 0.014 µM); in assay [2] (setting [16]), 1.6 ng/mL (≈ 0.00354 µM). The Resistance index in assay [1] amounted to 1.3.
As to `Clc1ccc2c(Nc3cccc(Nc4ccnc5cc(Cl)ccc45)c3)ccnc2c1` [Example 9, N,N'-Bis-(7-Chloroquinolin-4-yl)-phenylene-1,3-diamine], the values for the inhibition in vivo at 10 mg/kg with Plasmodium berghei (setting [3]) and in the assay on Plasmodium berghei (setting [4]) were 86% and 83%, respectively. For the same compound, the IC50 worked out at 17.1 ng/mL (≈ 0.0396 µM) in assay [1] (setting [5]); 7.7 ng/mL (≈ 0.0179 µM) in assay [1] (setting [6]); 12.9 ng/mL (≈ 0.0299 µM) in assay [1] (setting [7]); 17.1 ng/mL (≈ 0.0396 µM) in assay [1] (setting [8]); 12.5 ng/mL (≈ 0.029 µM) in assay [1] (setting [9]); 12.1 ng/mL (≈ 0.0281 µM) in assay [1] (setting [10]). In addition, the IC50 came to 12.1 ng/mL (≈ 0.0281 µM) in assay [1] (setting [11]); 9.5 ng/mL (≈ 0.022 µM) in assay [2] (setting [12]); 23.7 ng/mL (≈ 0.0549 µM) in assay [2] (setting [15]); 15.6 ng/mL (≈ 0.0362 µM) in assay [2] (setting [13]); 10.8 ng/mL (≈ 0.025 µM) in assay [2] (setting [14]); 10.4 ng/mL (≈ 0.0241 µM) in assay [2] (setting [16]). Moreover, in assay [1], the Resistance index came out at 0.9.
As for `Clc1ccc2c(NCC3CCCC(CNc4ccnc5cc(Cl)ccc45)C3)ccnc2c1` (stereo not shown) [Example 11, (7-Chloroquinolin-4-yl)-[3-(7-chloroquinolin-4-yl-aminomethyl)-cyclohexylmethyl]-amine], the values for the inhibition in vivo at 10 mg/kg in the assay with Plasmodium berghei (setting [3]) and with Plasmodium berghei (setting [4]) were 28% and 99.6%, respectively. The IC50 in assay [1] (setting [5]) came out at 20.5 ng/mL (≈ 0.044 µM); in assay [1] (setting [6]), 14.4 ng/mL (≈ 0.0309 µM); in assay [1] (setting [7]), 11.6 ng/mL (≈ 0.0249 µM); in assay [1] (setting [8]) it was 17.8 ng/mL (≈ 0.0382 µM); in assay [1] (setting [9]), 14.1 ng/mL (≈ 0.0303 µM); in assay [1] (setting [10]), 9.9 ng/mL (≈ 0.0213 µM). For the same compound, the IC50 in assay [1] (setting [11]) came to 15.9 ng/mL (≈ 0.0342 µM); in assay [2] (setting [12]), 12.7 ng/mL (≈ 0.0273 µM); in assay [2] (setting [15]) it was 17.2 ng/mL (≈ 0.037 µM); in assay [2] (setting [13]) it was 14.5 ng/mL (≈ 0.0312 µM); in assay [2] (setting [14]), 16.8 ng/mL (≈ 0.0361 µM); in assay [2] (setting [16]), 4.9 ng/mL (≈ 0.0105 µM). The Resistance index in assay [1] is on record as 1.1.

(Values after patent US5736557A, “N,N-bis (quinolin-4-yl)-diamine derivatives, their preparation and their use as antimalarials” (Hoffman-La Roche, Inc., priority 1994, dated 1998).)
